In patent US11833128B2, “Ketone carbonyl-containing hydrophobic antitumor drug and conjugate thereof as well as nano preparation containing conjugate, preparation method therefor, and application thereof” (Jiangsu Jibeier Pharmaceutical Co. Ltd., priority 2018, dated 2023):

Key:
Hela tumor = assay: Effects of the pH-responsive nano preparations on tumor in vivo (Hela tumor-bearing mice); conditions: tail vein, once every seven days x3; for relative tumor inhibition rate: 30th day from the last administration
Experimental: Hela tumor-bearing mice were divided into four groups with five mice in each group. The first, second, and third groups were the treatment groups, in which tumor treatment was carried out by respectively injecting the drug via the tail vein of each Hela tumor-bearing mouse. […] The fourth group was the blank control group.
The mice in the first, second and third groups were treated by administering drugs once every seven days for a total of three injections. Each tumor-bearing mouse in each group was labeled, and the body weight and the tumor volume thereof throughout the treatment process were recorded. The tumor volume was calculated according to the following formula: V (mm^3)=½×length (mm)×width (mm)^2.
Moreover, the relative tumor inhibition rate was also calculated and analyzed.

[1] = system: human lung cancer A549 xenograft; assay: Tumor inhibitory effect of DTX-AI in nude mice bearing human lung cancer A549 xenograft; conditions: iv x 4 (qw); for Animal body weight (g) (After tumor removal): Day 43; for Tumor inhibition rate %: Day 43 (21st day from the last administration);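 as to all read-outs here: mice implanted subcutaneously with A549 tumor fragments, grouped 14 days later at mean tumor volume near 210–250 mm^3, grouping set as Day 0, animals sacrificed on Day 43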
From the text: A well-grown A549 lung cancer solid tumor was taken and cut into uniform small masses having a size of about 3 mm under sterile conditions. Each mouse was inoculated subcutaneously under the right armpit with one mass by using a trocar. 14 days after inoculation, the average tumor volume was about 210 to 250 mm^3. The mice were grouped according to the tumor sizes, and the average tumor volume of each group was basically the same. […] The long diameters (a) and the short diameters (b) of the tumors were measured with an electronic digital caliper twice a week. The calculation formula of tumor volume (TV) was: TV=½×a×b^2. The calculation formula of the relative tumor volume (RTV) was: RTV=Vt/V0, wherein V0 was the tumor volume measured at the time of grouping (namely, d0), and Vt was the tumor volume at each measurement. […] On Day 43 (56 days after inoculation), the animals were sacrificed and dissected, the tumors were incised and weighed, and the body weights of the animals after tumor removal were calculated.

CC(=O)OC12COC1CC(O)C1(C)C(=O)C(OC(=O)Nc3ccc(C(C)=O)cc3)C3=C(C)C(OC(=O)C(O)C(NC(=O)OC(C)(C)C)c4ccccc4)CC(O)(C(OC(=O)c4ccccc4)C21)C3(C)C (stereo not shown) [DTX-AI]
relative tumor volume after 21 days (after the administration was stopped) (FIG. 5) (Hela tumor; 40 mg DTX/kg): still showed a decreasing trend with time
tumor sizes after the completion of the treatment (photograph, FIG. 7) (Hela tumor; 40 mg DTX/kg): significantly smaller than those of the first group and the blank control group
relative tumor inhibition rate (Hela tumor; 40 mg DTX/kg): 93.5%
body weights of the mice over treatment time (FIG. 4) (Hela tumor; 40 mg DTX/kg, compared with blank control group): basically the same as those in the blank control group
RTV (Day 43) ([1]; 20 mg/kg): 6.62 ± 2.10
body weights of the animals after administering (FIG. 9), in words ([1]; 20 mg/kg): basically not affected
Animal body weight (g) (After tumor removal) ([1]; 20 mg/kg): 25.52 ± 0.99 g
Tumor inhibition rate % ([1]; 20 mg/kg): 62.38%
tumor rebound after drug withdrawal ([1]; 40 mg/kg, 60 mg/kg and 80 mg/kg groups): no tumor rebound occurred
RTV (Day 43) ([1]; 40 mg/kg): 0.13 ± 0.03
body weights of the animals after administering (FIG. 9), in words ([1]; 40 mg/kg): slightly reduced
Animal body weight (g) (After tumor removal) ([1]; 40 mg/kg): 24.07 ± 1.19 g
Tumor inhibition rate % ([1]; 40 mg/kg): 99.28%
RTV (Day 43) ([1]; 60 mg/kg): 0.09 ± 0.02
body weights of the animals after administering (FIG. 9), in words ([1]; 60 mg/kg): slightly reduced
Animal body weight (g) (After tumor removal) ([1]; 60 mg/kg): 24.24 ± 1.43 g
Tumor inhibition rate % ([1]; 60 mg/kg): 99.50%
RTV (Day 43) ([1]; 80 mg/kg): 0.13 ± 0.05
body weights of the animals after administering (FIG. 9), in words ([1]; 80 mg/kg): reduced
Animal body weight (g) (After tumor removal) ([1]; 80 mg/kg): 20.99 ± 2.86 g
Tumor inhibition rate % ([1]; 80 mg/kg): 99.27%
death of animals ([1]; 4 dose groups (20, 40, 60, 80 mg/kg)): No death occurred

CC(=O)O[C@@]12CO[C@@H]1C[C@H](O)[C@@]1(C)C(=O)[C@H](O)C3=C(C)[C@@H](OC(=O)[C@H](O)[C@@H](NC(=O)OC(C)(C)C)c4ccccc4)C[C@@](O)([C@@H](OC(=O)c4ccccc4)[C@H]21)C3(C)C [Docetaxel, docetaxel, reference compound]
relative tumor volume after 21 days (after the administration was stopped) (FIG. 5) (Hela tumor; 25 mg DTX/kg): continued to increase with time
relative tumor inhibition rate (Hela tumor; 25 mg DTX/kg): 67.62%
RTV (Day 43) ([1]; 20 mg/kg): 2.73 ± 1.36
body weights of the animals after administering (FIG. 9), in words ([1]; 20 mg/kg): reduced
death of animals ([1]; 20 mg/kg): no death
Animal body weight (g) (After tumor removal) ([1]; 20 mg/kg): 25.35 ± 1.15 g
Tumor inhibition rate % ([1]; 20 mg/kg): 84.50%
RTV (Day 43) ([1]; 40 mg/kg): 0.13 ± 0.02
body weights of the animals after administering (FIG. 9), in words ([1]; 40 mg/kg): severely reduced
Animal body weight (g) (After tumor removal) ([1]; 40 mg/kg): 18.71 ± 2.78 g
Tumor inhibition rate % ([1]; 40 mg/kg): 99.24%
death of animals (number of animals died) ([1]; 40 mg/kg, died on Day 33): 1 animal
